According to patent publication US20090018111A1, “Novel Antimicrobial Medicament” (priority 2004, published 2009):
Where two headings read alike, the source gives them in different places.

Key:
Test in all cases: Sensitivity test (agar dilution)
[1] = system: C. freundii GN346; format: cell-based, Citrobacter freundii; settings: Citrobacter freundii
Outline: (§1)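 Water-dissolved compounds, alone or mixed, were incorporated into Mueller Hinton agar at twofold serial concentrations. Spot inoculation used about 5 μl of about 10^6 CFU/ml suspension.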

[2] = system: P. aeruginosa IFO3451; format: cell-based, Pseudomonas aeruginosa; settings: Pseudomonas aeruginosa
Outline: as §1

[3] = system: P. aeruginosa TL-2666; format: cell-based, Pseudomonas aeruginosa; settings: Pseudomonas aeruginosa
Outline: as §1

[4] = system: P. aeruginosa TL-2667; format: cell-based, Pseudomonas aeruginosa; settings: Pseudomonas aeruginosa
Outline: as §1

`C[C@H]1C=C(c2csc(SC3=C(C(=O)O)N4C(=O)[C@H]([C@@H](C)O)[C@H]4[C@H]3C)n2)CN1` [SM, (4R,5S,6S)-6-[(1R)-1-Hydroxyethyl]-4-methyl-3-({4-[(5S)-5-methyl-2,5-dihydro-1H-pyrrol-3-yl]-1,3-thiazol-2-yl}sulfanyl)-7-oxo-1-azabicyclo[3.2.0]hept-2-ene-2-carboxylic acid] was tested, and the MIC ([1]; GN346, Concomitant (IPM:SM = 1:1), read-out: MIC) was 0.25 µg/mL, the MIC ([1]; GN346, Concomitant (MEPM:SM = 1:1), read-out: MIC) was 0.031 µg/mL and the MIC ([1]; GN346, Concomitant (MEPM:SM = 1:2), read-out: MIC) was 0.063 µg/mL. The MIC ([1]; GN346, Concomitant (MEPM:SM = 1:4), read-out: MIC) was 0.125 µg/mL, the MIC ([1]; GN346, Concomitant (PAPM:SM = 1:1), C. freundii GN346, read-out: MIC concomitant) was 0.25 µg/mL and the MIC ([1]; GN346, Concomitant (PIPC:SM = 1:1), C. freundii GN346, read-out: MIC concomitant) was 8 µg/mL. For the same compound, the MIC ([1]; GN346, Concomitant drug (MEPM:SM = 2:1), read-out: MIC) was 0.016 µg/mL, the MIC ([1]; GN346, alone, read-out: MIC) was 8 µg/mL and the MIC ([1]; GN346, drug alone, C. freundii GN346, read-out: MIC alone) was 8 µg/mL. The MIC ([2]; IFO3451, Concomitant (AZT:SM = 1:1), P. aeruginosa IFO3451, read-out: MIC concomitant) was 2 µg/mL, the MIC ([2]; IFO3451, Concomitant (BIPM:SM = 1:1), P. aeruginosa IFO3451, read-out: MIC concomitant) was 0.25 µg/mL and the MIC ([2]; IFO3451, Concomitant (CAZ:SM = 1:1), P. aeruginosa IFO3451, read-out: MIC concomitant) was 2 µg/mL. The MIC ([2]; IFO3451, Concomitant (CPFX:SM = 1:1), P. aeruginosa IFO3451, read-out: MIC concomitant) was 0.125 µg/mL, the MIC ([2]; IFO3451, Concomitant (DRPM:SM = 1:1), P. aeruginosa IFO3451, read-out: MIC concomitant) was 0.25 µg/mL and the MIC ([2]; IFO3451, Concomitant (IPM:SM = 1:1), read-out: MIC) was 0.5 µg/mL. It also gave an MIC ([2]; IFO3451, Concomitant (MEPM:SM = 1:1), read-out: MIC) of 0.5 µg/mL, an MIC ([2]; IFO3451, Concomitant (MEPM:SM = 1:2), read-out: MIC) of 1 µg/mL and an MIC ([2]; IFO3451, Concomitant (MEPM:SM = 1:4), read-out: MIC) of 2 µg/mL. The MIC ([2]; IFO3451, Concomitant (PAPM:SM = 1:1), P. aeruginosa IFO3451, read-out: MIC concomitant) was 2 µg/mL, the MIC ([2]; IFO3451, Concomitant (PIPC:SM = 1:1), P. aeruginosa IFO3451, read-out: MIC concomitant) was 8 µg/mL and the MIC ([2]; IFO3451, Concomitant drug (MEPM:SM = 2:1), read-out: MIC) was 0.25 µg/mL. For the same compound, the MIC ([2]; IFO3451, alone, read-out: MIC) was 8 µg/mL, the MIC ([2]; IFO3451, drug alone, P. aeruginosa IFO3451, read-out: MIC alone) was 8 µg/mL and the MIC ([3]; TL2666, Concomitant (AZT:SM = 1:1), P. aeruginosa TL-2666, read-out: MIC concomitant) was 8 µg/mL. It also gave an MIC ([3]; TL2666, Concomitant (BIPM:SM = 1:1), P. aeruginosa TL-2666, read-out: MIC concomitant) of 1 µg/mL, an MIC ([3]; TL2666, Concomitant (CAZ:SM = 1:1), P. aeruginosa TL-2666, read-out: MIC concomitant) of 8 µg/mL and an MIC ([3]; TL2666, Concomitant (CPFX:SM = 1:1), P. aeruginosa TL-2666, read-out: MIC concomitant) of 2 µg/mL. For the same compound, the MIC ([3]; TL2666, Concomitant (DRPM:SM = 1:1), P. aeruginosa TL-2666, read-out: MIC concomitant) was 1 µg/mL, the MIC ([3]; TL2666, Concomitant (IPM:SM = 1:1), read-out: MIC) was 1 µg/mL and the MIC ([3]; TL2666, Concomitant (MEPM:SM = 1:1), read-out: MIC) was 1 µg/mL. It also gave an MIC ([3]; TL2666, Concomitant (MEPM:SM = 1:2), read-out: MIC) of 2 µg/mL, an MIC ([3]; TL2666, Concomitant (MEPM:SM = 1:4), read-out: MIC) of 4 µg/mL and an MIC ([3]; TL2666, Concomitant (PAPM:SM = 1:1), P. aeruginosa TL-2666, read-out: MIC concomitant) of 8 µg/mL. It also gave an MIC ([3]; TL2666, Concomitant (PIPC:SM = 1:1), P. aeruginosa TL-2666, read-out: MIC concomitant) of 16 µg/mL, an MIC ([3]; TL2666, Concomitant drug (MEPM:SM = 2:1), read-out: MIC) of 0.5 µg/mL and an MIC ([3]; TL2666, alone, read-out: MIC) of 16 µg/mL. The MIC ([3]; TL2666, drug alone, P. aeruginosa TL-2666, read-out: MIC alone) was 16 µg/mL, the MIC ([4]; TL2667, Concomitant (AZT:SM = 1:1), P. aeruginosa TL-2667, read-out: MIC concomitant) was 8 µg/mL and the MIC ([4]; TL2667, Concomitant (BIPM:SM = 1:1), P. aeruginosa TL-2667, read-out: MIC concomitant) was 4 µg/mL. It also gave an MIC ([4]; TL2667, Concomitant (CAZ:SM = 1:1), P. aeruginosa TL-2667, read-out: MIC concomitant) of 8 µg/mL, an MIC ([4]; TL2667, Concomitant (CPFX:SM = 1:1), P. aeruginosa TL-2667, read-out: MIC concomitant) of 2 µg/mL and an MIC ([4]; TL2667, Concomitant (DRPM:SM = 1:1), P. aeruginosa TL-2667, read-out: MIC concomitant) of 2 µg/mL. For the same compound, the MIC ([4]; TL2667, Concomitant (IPM:SM = 1:1), read-out: MIC) was 8 µg/mL, the MIC ([4]; TL2667, Concomitant (MEPM:SM = 1:1), read-out: MIC) was 4 µg/mL and the MIC ([4]; TL2667, Concomitant (MEPM:SM = 1:2), read-out: MIC) was 4 µg/mL.
